Laboratory results as given in patent US20060263355A1, “Treatment of bone disorders” (priority 2005, published 2006).

Legend:
[1] = system: serological markers of inflammation and bone turnover; experiment: Serum biochemical markers in RA patients, Phase IIa study of rituximab; format: in vivo, human; conditions: week 24 vs baseline, n = 40
Method: Serum samples were analyzed from RA+ patients who received either methotrexate (MTX) alone or MTX in combination with a single course of rituximab as part of a Phase IIa study of rituximab in RA to be reported elsewhere. The following markers were measured at baseline and Week 24: anti-CCP, CRP, S100, SAA, PINP and Osteocalcin (OC).
Biomarker data were analyzed using a non-parametric approach by comparing the percentage changes at 24-weeks from baseline in MTX group with the RTX+MTX group. The median percent change from baseline was plotted using the following formula: Pcfb1(marker)=((slope—lr*study time at last visit)/intercept—lr)*100
where slope_lr=slope of linear regression for each patient • intercept_lr=intercept of linear regression for each patient.

[2] = cited from earlier work; for effect in rat adjuvant / experimental arthritis: in vivo
[3] = ACR50 clinical response in RA, Phase IIa study of rituximab; format: in vivo, human; conditions: two infusions of rituximab two weeks apart with ongoing MTX, versus MTX alone
[4] = Periodontal disease model (Example 5); format: in vivo; conditions: applied to the periodontal pocket
Method: Rituximab may be used to regenerate bone and ligament lost to periodontal disease. In this model teeth showing 20% to 80% reduction of surrounding jaw bone are scaled, then a full-thickness gingival flap is made by an incision to expose the jaw bone and tooth root. The root is planed to remove bacterial plaque and calculus. Rituximab is applied to the periodontal pocket in a 2.5% HPMC gel at a dose of […] per tooth, or alternatively a solution of rituximab in 100 mM sodium acetate buffer, pH 6.0 is added to powdered bone to provide a dosage of […] rituximab per tooth. The material is thoroughly mixed and applied to the exposed periodontal pocket. In both cases, the gingival flap is then closed and held in place by suturing.

[5] = system: TRAP-positive osteoclasts; experiment: TRAP assay, osteoclasts formed in vitro (Example 4)
Method: TRAP refers to tartrate-resistant acid phosphatase that identifies osteoclast-like cells.
In this test, naphthol AS-MX phosphate 5 mg (Sigma, St. Louis, Mo.) is resolved in 0.5 ml of N,N-dimethylformamide (Wako). Thirty milligrams of fast red violet LB salt (Sigma) and 50 ml of 0.1 M sodium acetate buffer (pH 5.0) containing 50 mM sodium tartrate are added to the mixture (the TRAP-staining solution). Cells are fixed with 3.7% (v/v) formaldehyde in Ca^2− and Mg^2+-free phosphate-buffered saline for 10 min, fixed again with ethanol-acetone (50:50, v:v) for 1 min, and incubated with the TRAP-staining solution for 10 min. at room temperature. TRAP-positive osteoclasts appear as red cells. The incubation period should not exceed 10 min. since cells other than osteoclasts become weakly positive with time. After staining, cells are washed with distilled water, and TRAP-positive multinucleated cells having three or more nuclei are counted as osteoclasts under a microscope (Nicholson et al., J. Clin. Invest. 78: 355 (1986)).

[6] = Bone remodeling in animals (Example 2); conditions: rats, subcutaneously once per day for 35 days
[7] = system: serological markers of inflammation and bone turnover; experiment: Serum biochemical markers in RA patients, Phase IIa study of rituximab; format: in vivo, human; conditions: RA patients treated with rituximab
B cells = conditions: cynomolgus monkey; cited from earlier work
[8] = in vivo; cited from earlier work
[9] = pH 5; cited from earlier work
lymphoid B-cell lines = conditions: cited from earlier work
[10] = in vivo; cited from earlier work; remark: listed apart in the source

Which “Anti-CCP (anti-citrullinated peptide antibody), median % change from baseline at 24 weeks” value [1] does the source give for `CN(Cc1cnc2nc(N)nc(N)c2n1)c1ccc(C(=O)N[C@@H](CCC(=O)O)C(=O)O)cc1` [MTX, methotrexate] here?
Its value is −21.03%.

And the “CRP (C-reactive protein), median % change from baseline at 24 weeks” value [1]?
Its value is −22.21%.

And the “OC (osteocalcin), median % change from baseline at 24 weeks” value [1]?
The value was 1.94%.

What about the “P-1NP (procollagen type 1 N-terminal propeptide), median % change from baseline at 24 weeks” value [1] of the same compound?
Its value is −11.78%.

And the “S100 (S100 A8/9), median % change from baseline at 24 weeks” value [1]?
Its value is −14.31%.

What about the “SAA (serum amyloid A), median % change from baseline at 24 weeks” value [1] of the same compound?
The value was −10.55%.

For `O=P(O)(O)C(O)(Cc1cccnc1)P(=O)(O)O` [NE58095], which “effect in rat adjuvant / experimental arthritis” value [2] is on record?
Its value is “prevents bone erosion and preserves joint architecture”.

With `O=P(O)(O)C(O)(Cn1ccnc1)P(=O)(O)O` [Zoledronate] as the compound, how does the “effect in rat adjuvant / experimental arthritis” value [2] read?
The value was “protects against meta hyseal intracortical defets”.

What does the source list for `O=P(O)(O)C(Cl)(Cl)P(=O)(O)O` [clodronate]?
effect in arthritis study at 20 mg/kg/day iv infusion ([2]; 20 mg/kg/day iv infusion): decreases pedal inflammation and bone resorption, but also inhibits bone formation; effect in rat adjuvant / experimental arthritis [2]: decrease weight loss, pedal inflammation, and bone resorption

For `CC(O)(P(=O)(O)O)P(=O)(O)O` [etridronate], which “effect in rat adjuvant / experimental arthritis” value [2] is on record?
The value was “decrease weight loss, pedal inflammation, and bone resorption”.

Which “Anti-CCP (anti-citrullinated peptide antibody), median % change from baseline at 24 weeks” value [1] does the source give for “Rituximab + MTX: MTX in combination with a single course of rituximab” here?
Its value is −45.78%.

And the “CRP (C-reactive protein), median % change from baseline at 24 weeks” value [1]?
Its value is −59.07%.

And the “OC (osteocalcin), median % change from baseline at 24 weeks” value [1]?
Its value is 28.76%.

And the “P-1NP (procollagen type 1 N-terminal propeptide), median % change from baseline at 24 weeks” value [1]?
Its value is 13.64%.

What about the “S100 (S100 A8/9), median % change from baseline at 24 weeks” value [1] of the same compound?
Its value is −52.73%.

And the “SAA (serum amyloid A), median % change from baseline at 24 weeks” value [1]?
Its value is −77.02%.

And the “ACR50 response at 24 weeks” value [3]?
Its value is “significantly higher clinical responses”.

What does the source list for “humanized 2H7: humanized CD20 antibody, or antigen-binding fragment, comprising at least CDR H3 of SEQ ID NO:12 and human VHIII framework”?
regeneration of surrounding jaw bone versus placebo [4]: at least partially regenerated; performance as positive control in TRAP assay [5]: effective as a positive control; bone remodeling versus controls [6]: effective in enhancing bone remodeling over the controls

For rituximab, which Total immunoglobulin levels [7] is on record?
The Total immunoglobulin levels was “not affected significantly”.

And the “B-cell depletion in vivo” value (B cells)?
Its value is “depletes B cells from the peripheral blood, lymph nodes, and bone marrow”.

What about the “regeneration of surrounding jaw bone versus placebo” value [4] of the same compound?
Its value is “at least partially regenerated”.

What about the “patients admitted to the hospital for overnight observation after moderate fever and rigors following the first infusion” value [8] of the same compound?
Its value is 1 of 10.

And the minimum shelf life [9]?
The minimum shelf life was “two”.

What about the “complement-dependent cytotoxicity (CDC)” value (lymphoid B-cell lines) of the same compound?
The value was “lyses lymphoid B-cell lines”.

And the “performance as positive control in TRAP assay” value [5]?
Its value is “effective as a positive control”.

And the “bone remodeling versus controls” value [6]?
Its value is “effective in enhancing bone remodeling over the controls”.

And the “patients experiencing at least one adverse event during their first infusion” value [10]?
The value was 36%.
